Measured values taken from patent US20260028390A1, “ALPHA1-ANTITRYPSIN FOR USE IN THE TREATMENT OF DISEASES OR DISORDERS OF THE NERVOUS SYSTEM SUCH AS CHRONIC INFLAMMATORY DEMYELINATING POLYNEUROPATHY” (Ageronix SA, priority 2022, published 2026).

System: HMC3-MHCII^Luc cells
Assay: RNAseq differential gene expression / GSEA in AAT-treated resting and IFNγ-activated microglia
Type: cell-based, human
Method: • A) Human microglial HMC3-MHCII^Luc cells were plated at day 0, presented IFNγ at day 1 until day 2 and measurement of the luciferase activity and cell viability were done at day 4. • B) AATs were applied from day 0 to day 4 on HMC3-MHCII^Luc cells. Activation was measured by the activity of MHCII-driven luciferase and represented as percentage of IFNγ control for all conditions. All conditions were performed in triplicates, error bars represent standard deviation. • C) Bulk RNA extraction was performed on the same HMC3-MHCII^Luc cultures. Quality control (QC) were applied to RNA before sequencing. QC of the sequencing was done prior to mapping on the human genome. Mapped reads were counted, and differential gene expression was measured between the conditions (see Table 1-10). (FIGS. 3A, 3B and 3C)
RNAseq data from plasma-derived and recombinant AATs were pooled, normalized and analyzed through Gene Set Enrichment Analysis (GSEA) (https://www.gsea-msigdb.org/gsea/index.jsp; Subramanian, A., et al. Proc. Natl. Acad. Sci. USA, 102 (43): 15545-15550, 2005.). […] Importantly, both the IFNγ and inflammatory responses were dampened by AAT. However, the downregulation of the inflammatory response genes in (C) was just under significance.
Tables of genes related to antigen presentation (Table 1), cytokine signaling (Table 2), interferon signaling (Table 3) and complement activation (Table 4). Inflammatory top gene (FC>2; p-value<0.05; left column), were defined by differential expression between untreated and IFNγ-treated cells (inflammation; middle column).
HMC3-MHCII^Luc and HMC3-MHCII^Luc; Ubi^AAT (endogenous AAT) cell lines were seeded into 96-well plates at a density of approximately 2500 cells/well. HMC3-MHCII^Luc cell line was plated and was added plasma-derived AAT and recombinant AATs (produced in CHO cells, AAT 1 and AAT 2) 3h later and at ranged concentration (1; 10 or 25 μM). 24h after, still in the presence of exogenous or endogenous AAT, microglial activation was induced with a 24h-long IFNγ presentation (10 ng/ml). IFNγ was then removed and both HMC3-MHCII^Luc and HMC3-MHCII^Luc; Ubi^AAT cells were cultured for 48h in exogenous or endogenous presence of AAT before cell cultures were beeing assessed for cell viability and activation (See FIGS. 3A, 3B, 3C and 4A,4B, 4C).
RNA samples from plasma-derived AAT and recombinant AAT Nr. 2 were checked for quality (2100 Bioanalyzer, Agilent) and libraries prepared with Truseq RNA Library Kit (Illumina, RS-122-2001). Libraries were sequenced (HiSeq 4000, Illumina) controlled for the quality of sequencing (FastQC), mapped on the human genome (STAR v.2.7.0f; UCSC hg38), reads were counted (HTSeq v0.9.1) and the differential expression analysis was performed with the R/Bioconductor package (edgeR 1.30.1.).

[1] = AAT (left block), GBS risk gene
[2] = AAT, resting microglia, AD risk gene
[3] = AAT, resting microglia, MCT*/PN risk gene
[4] = AAT, resting microglia, MS risk gene
[5] = AAT, resting microglia, PD risk gene
[6] = FC AAT, resting microglia, M2 gene

alpha1-antitrypsin (AAT) protein
CDC42 expression FC AAT [1]: −1.35 | FOS expression FC AAT [1]: −2.31 | GLRX5 expression FC AAT [1]: 1.12 | GUK1 expression FC AAT [1]: 1.57 | HAGH expression FC AAT [1]: 1.40 | HMGB2 expression FC AAT [1]: −1.20 | MARCKS expression FC AAT [1]: −2.06 | PKN2 expression FC AAT [1]: −1.47 | SENP6 expression FC AAT [1]: −1.47 | SMCHD1 expression FC AAT [1]: −1.39 | ZNF12 expression FC AAT [1]: −1.26 | IFNγ and inflammatory responses (GSEA gene families) (AAT treatment in absence or presence of IFNγ, pooled plasma-derived and recombinant AAT RNAseq data): dampened | ABCA7 expression FC [2]: 1.75 | APOE expression FC [2]: 1.74 | BIN1 expression FC [2]: 1.33 | CD2AP expression FC [2]: −1.39 | CLU expression FC [2]: −1.30 | PICALM expression FC [2]: −1.48 | PSEN2 expression FC [2]: 1.45 | TREM2 expression FC [2]: 2.22 | ARHGEF10 expression FC [3]: 1.19 | CCT5 expression FC [3]: −1.17 | DNAJB2* expression FC [3]: 1.39 | DST expression FC [3]: −1.35 | DYNC1H1* expression FC [3]: −1.40 | FIG4* expression FC [3]: −1.42 | GAN* expression FC [3]: −1.21 | GARS* expression FC [3]: −1.21 | GDAP1* expression FC [3]: −1.54 | GNB4* expression FC [3]: −1.56 | HSPB1* expression FC [3]: 1.67 | IFRD1 expression FC [3]: 1.23 | IGHMBP2* expression FC [3]: 1.39 | KIF1A expression FC [3]: 2.76 | KIF1B* expression FC [3]: −1.21 | LRSAM1* expression FC [3]: 1.36 | MTMR2* expression FC [3]: −1.36 | PLEKHG5* expression FC [3]: 1.49 | SBF2 expression FC [3]: −1.20 | SCN9A expression FC [3]: −1.50 | SCN11A expression FC [3]: 4.49 | SETX expression FC [3]: −1.23 | SPTLC1 expression FC [3]: −1.23 | TFG* expression FC [3]: −1.28 | TRIM2* expression FC [3]: −1.39 | TRPV4* expression FC [3]: 1.92 | WNK1 expression FC [3]: −1.14 | AGAP2 expression FC [4]: 1.30 | AHI1 expression FC [4]: −1.46 | CBLB expression FC [4]: −1.24 | CD40 expression FC [4]: 1.17 | CD58 expression FC [4]: −1.61 | CDC37 expression FC [4]: 1.26 | CYP24A1 expression FC [4]: 2.55 | EXTL2 expression FC [4]: −1.76 | HLA-A expression FC [4]: 1.48 | HLA-DRB1 expression FC [4]: −1.47 | METTL1 expression FC [4]: 1.22 | MPV17L2 expression FC [4]: 1.31 | PTGER4 expression FC [4]: −1.29 | PTPRK expression FC [4]: −1.38 | RPS6KB1 expression FC [4]: −1.23 | SLC30A7 expression FC [4]: −1.77 | ATP13A2 expression FC [5]: 1.42 | DNAJC6 expression FC [5]: −1.14 | DNAJC13 expression FC [5]: −1.37 | GIGYF2 expression FC [5]: −1.16 | LRP10 expression FC [5]: 1.29 | LRRK2 expression FC [5]: −3.98 | PLA2G6 expression FC [5]: 1.55 | SYNJ1 expression FC [5]: −1.33 | TMEM230 expression FC [5]: −1.42 | VPS13C expression FC [5]: −1.41 | VPS35 expression FC [5]: −1.42 | ACAN expression FC [6]: 1.37 | AP2A2 expression FC [6]: 1.26 | APLP1 expression FC [6]: 1.41 | APRT expression FC [6]: 1.16 | BAIAP2 expression FC [6]: 1.45 | C16orf45 expression FC [6]: 1.31 | CHPF expression FC [6]: 1.80 | COL1A1 expression FC [6]: 1.58 | COL11A1 expression FC [6]: 1.14 | DBN1 expression FC [6]: 1.42 | ENG expression FC [6]: 1.29 | EXTL1 expression FC [6]: 2.19 | FEZ1 expression FC [6]: 1.45 | FGD3 expression FC [6]: 1.76 | FOXC1 expression FC [6]: 1.26 | FZD2 expression FC [6]: 1.39 | FZD7 expression FC [6]: 1.24 | GADD45GIP1 expression FC [6]: 1.55 | GREM1 expression FC [6]: 1.69 | GUK1 expression FC [6]: 1.57 | HSPG2 expression FC [6]: 1.58 | IGFBP2 expression FC [6]: 1.63 | ITGA11 expression FC [6]: 1.65 | MARCH4 expression FC [6]: 1.28 | MBOAT7 expression FC [6]: 1.44 | METRN expression FC [6]: 2.23 | MIF expression FC [6]: 1.83 | MMP1 expression FC [6]: 2.51 | MOSPD3 expression FC [6]: 1.51 | MXRA8 expression FC [6]: 1.40 | NID1 expression FC [6]: 1.16 | NTN4 expression FC [6]: 1.25 | PAPPA expression FC [6]: 1.24 | PLEC expression FC [6]: 1.69 | PLTP expression FC [6]: 1.28 | PREX1 expression FC [6]: 1.25 | PRSS36 expression FC [6]: 1.58 | PTPRS expression FC [6]: 1.27 | RAB3IL1 expression FC [6]: 1.55 | RASA4B expression FC [6]: 1.46 | RASAL1 expression FC [6]: 1.52 | SART1 expression FC [6]: 1.44 | SEMA3B expression FC [6]: 1.50 | SERPINH1 expression FC [6]: 1.21 | SLC22A5 expression FC [6]: 1.22 | STC2 expression FC [6]: 1.42 | TAGLN expression FC [6]: 1.37 | TBCD expression FC [6]: 1.26 | TEKT4P2 expression FC [6]: 2.46 | TGFB1I1 expression FC [6]: 1.31 | TNFRSF1B expression FC [6]: 1.46 | TTC9 expression FC [6]: 1.65 | ZIC2 expression FC [6]: 2.42 | AHNAK2 expression FC (FC inflammation + AAT, M2 gene): 1.40 | ANPEP expression FC (FC inflammation + AAT, M2 gene): 1.25 | ARHGDIB expression FC (FC inflammation + AAT, M2 gene): 1.28 | BAIAP2 expression FC (FC inflammation + AAT, M2 gene): 1.24 | BGN expression FC (FC inflammation + AAT, M2 gene): 1.27 | CHPF expression FC (FC inflammation + AAT, M2 gene): 1.58 | CLIP3 expression FC (FC inflammation + AAT, M2 gene): 1.25 | CLMP expression FC (FC inflammation + AAT, M2 gene): 1.22 | COL11A1 expression FC (FC inflammation + AAT, M2 gene): 1.16 | DBN1 expression FC (FC inflammation + AAT, M2 gene): 1.31 | ENG expression FC (FC inflammation + AAT, M2 gene): 1.35 | EXTL1 expression FC (FC inflammation + AAT, M2 gene): 1.78 | FADS2 expression FC (FC inflammation + AAT, M2 gene): 1.20 | FAT1 expression FC (FC inflammation + AAT, M2 gene): 1.34 | FEZ1 expression FC (FC inflammation + AAT, M2 gene): 1.34 | FGD3 expression FC (FC inflammation + AAT, M2 gene): 2.31 | FZD2 expression FC (FC inflammation + AAT, M2 gene): 1.37 | FZD7 expression FC (FC inflammation + AAT, M2 gene): 1.36 | GADD45GIP1 expression FC (FC inflammation + AAT, M2 gene): 1.51 | GATA6 expression FC (FC inflammation + AAT, M2 gene): 1.47 | GREM1 expression FC (FC inflammation + AAT, M2 gene): 1.56 | GUK1 expression FC (FC inflammation + AAT, M2 gene): 1.31 | HCK expression FC (FC inflammation + AAT, M2 gene): 1.44 | HLA-DRB5 expression FC (FC inflammation + AAT, M2 gene): 2.09 | HSPG2 expression FC (FC inflammation + AAT, M2 gene): 1.41
